Results published in patent publication US20250241892A1, “5-METHOXY-N,N-[…][…] THE TREATMENT OF PSYCHOMOTOR RETARDATION” (GH RESEARCH IRELAND LIMITED, priority 2022, published 2025).

Tested on: patients with postpartum depression (PPD)
Assay: Clinical trial of inhaled 5-MeO-DMT in postpartum depression
Conditions: 1 patient
Method: The single-arm, open-label clinical trial will involve 15 adult female patients with clinically diagnosed postpartum depression (PPD).
The second dose (12 mg) will only be administered if: • a. A peak experience (total score of ⋅75) has not been achieved following the 6 mg dose, and • b. The 6 mg dose was safe and well-tolerated according to the investigator, • c. Any psychoactive effects (PsE) of the prior dose have subsided, and • d. Pre-dose vital parameters and forced expiratory volume in one second (FEV1) are in normal range, or if outside of the normal range, are not clinically significant according to the investigator. • 3. Similarly, a third dose (18 mg) will only be administered if: • a. A peak experience (total score of ⋅75) has not been achieved following the 12 mg dose, and • b. The 12 mg dose was safe and well-tolerated according to the investigator, and • c. Any PsE of the prior dose have subsided, and • d. Pre-dose vital parameters and forced expiratory volume in one second (FEV1) are in normal range, or if outside of the normal range, are not clinically significant according to the investigator.
The patients will be assessed for a peak psychedelic experience (based on a patient-scored visual analogue scale, the PE scale), sedation, and other endpoints after dosing. Follow-up visits are planned for Day 1, and Day 7 after the dosing day.
The following criteria must be met by all patients considered for clinical trial participation: • 1. Is female and in the age range between 18 and 45 years (inclusive) at screening. • 2. Has a body mass index (BMI) in the range of 18.5 and 35 kg/m^2 (inclusive) at screening. • 3. Meets the trial criteria for PPD as assessed by a trial psychiatrist or registered psychologist: • a. Diagnosis of Major Depressive Disorder without psychotic features, confirmed by the Mini-International Neuropsychiatric Interview (MINI), with peri-partum onset that began no earlier than gestation and no later than the first 4 weeks postpartum. • b. Has a Montgomery-Åsberg Depression Rating Scale (MADRS) total score of equal to or greater than 28 at screening and pre-dose on Day 0. • 6. […] Patients must have a negative pregnancy test at screening and on the pre-test day (Day −1). • 5. Is willing to delay start of other antidepressant or anxiety medication until after the end of the trial at Day 7 and agrees to keep any psychotherapy unchanged during the trial.
A potential patient who meets any of the following key exclusion criteria will be excluded from participation in this trial: • 1. Has, based on history, psychiatric assessment, and evaluation of the MINI, a current or prior diagnosis of bipolar disorder, a manic or hypomanic episode, a psychotic disorder, Major Depressive Disorder (MDD) or other mood disorder with psychotic features, obsessive compulsive disorder, post-traumatic stress disorder (PTSD), autism spectrum disorder, borderline personality disorder, schizophrenia, delusional disorder, paranoid personality disorder, schizoaffective disorder, clinically significant intellectual disability, or any other psychiatric comorbidity that renders the patient unsuitable for the trial according to the investigator's judgment. • 2. Has one or more first or second degree relatives with a current or previously diagnosed bipolar disorder, psychotic disorder or other mood disorder (including MDD) with psychotic features. • 3. Is in the judgement of a trial psychiatrist or registered psychologist, at significant risk for suicide based on history, psychiatric assessment, and evaluation of suicidal ideation and suicidal behaviour based on the Columbia-Suicide Severity Rating Scale (C-SSRS). • 4. Has taken anti-depressive medication within 14 days or 5 half-lives (whichever is longer) prior to dosing (exception: within the last 5 weeks in the case of fluoxetine). • 5.

In the case of `COc1ccc2[nH]cc(CCN(C)C)c2c1` [5-MeO-DMT], the “BPRS Mannerisms and Posturing score” value (Day 7, baseline 1) is reported as 1, the “BPRS Motor retardation score” value (Day 7, baseline 1) is reported as 1 and the “BPRS Suspiciousness score” value (Day 7, baseline 1) is reported as 1. The “BPRS Uncooperativeness score” value (Day 7, baseline 1) was 1, the “BPRS Unusual Thought Content score” value (Day 7, baseline 1) was 1 and the “BPRS Excitement score” value (Day 7, baseline 2) was 1. The “MADRS Inability to Feel score” value (Day 7, baseline 3) was 0, the “MADRS Lassitude score” value (Day 7, baseline 3) was 0 and the “MADRS Pessimistic Thoughts score” value (Day 7, baseline 4) was 0. The “MADRS Reported sadness score” value (Day 7, baseline 4) was 0, the “BPRS Emotional withdrawal score” value (Day 7, baseline 5) was 1 and the “MADRS Apparent sadness score” value (Day 7, baseline 5) was 0. For the same compound, the “MADRS Inner Tension score” value (Day 7, baseline 5) was 1, the “MADRS Reduced Sleep score” value (Day 7, baseline 5) was 0 and the “BPRS Depressive Mood score” value (Day 7, baseline 6) was 1. For the same compound, the “BPRS Guilt feelings score” value (Day 7, baseline 6) was 1, the “BPRS Somatic Concern score” value (Day 7, baseline 6) was 1 and the “BPRS Tension score” value (Day 7, baseline 6) was 1. For the same compound, the “BPRS Anxiety score” value (Day 7, baseline 7) was 1, the “BIMF functional domain Adjustment Δ (Day 7)” value (Day 7 vs Day 0) was 1 and the “BIMF functional domain Infant Care Δ (Day 7)” value (Day 7 vs Day 0) was 0. For the same compound, the “BIMF functional domain Management Δ (Day 7)” value (Day 7 vs Day 0) was 5, the “BIMF functional domain Mother-Child Interaction Δ (Day 7)” value (Day 7 vs Day 0) was 2 and the “BIMF functional domain Psychological Well-being Δ (Day 7)” value (Day 7 vs Day 0) was 9. For the same compound, the “BIMF functional domain Self Care Δ (Day 7)” value (Day 7 vs Day 0) was 4, the “BIMF functional domain Social Support Δ (Day 7)” value (Day 7 vs Day 0) was 1 and the “BIMF item 1 (I am a good mother) Δ (Day 7)” value (Day 7 vs Day 0) was 0. For the same compound, the “BIMF item 2 (I feel rested) Δ (Day 7)” value (Day 7 vs Day 0) was 2, the “BIMF item 3 (comfortable with the way I've chosen to feed my baby) Δ (Day 7)” value (Day 7 vs Day 0) was 0 and the “BIMF item 4 (My baby and I understand each other) Δ (Day 7)” value (Day 7 vs Day 0) was 0. For the same compound, the “BIMF item 5 (able to relax and enjoy time with my baby) Δ (Day 7)” value (Day 7 vs Day 0) was 1, the “BIMF item 6 (people in my life that I can trust to care for my baby) Δ (Day 7)” value (Day 7 vs Day 0) was 0 and the “BIMF item 8 (getting enough adult interaction) Δ (Day 7)” value (Day 7 vs Day 0) was 0. The “BIMF item 9 (getting enough encouragement from other people) Δ (Day 7)” value (Day 7 vs Day 0) was 1, the “BIMF item 10 (I trust my own feelings (instincts)) Δ (Day 7)” value (Day 7 vs Day 0) was 1 and the “BIMF item 11 (a little time each week to do something for myself) Δ (Day 7)” value (Day 7 vs Day 0) was 1. For the same compound, the “BIMF item 12 (taking good care of my baby's physical needs) Δ (Day 7)” value (Day 7 vs Day 0) was 0, the “BIMF item 13 (taking good care of my physical needs) Δ (Day 7)” value (Day 7 vs Day 0) was 1 and the “BIMF item 14 (good decisions about my baby's health and well being) Δ (Day 7)” value (Day 7 vs Day 0) was 0. The “BIMF item 15 (My baby and I are getting into a routine) Δ (Day 7)” value (Day 7 vs Day 0) was 1, the “BIMF item 16 (I worry about how other people judge me) Δ (Day 7)” value (Day 7 vs Day 0) was 2 and the “BIMF item 17 (able to take care of my baby and my other responsibilities) Δ (Day 7)” value (Day 7 vs Day 0) was 0. The “BIMF item 18 (Anxiety or worry often interferes with my mothering ability) Δ (Day 7)” value (Day 7 vs Day 0) was 3, the “BIMF item 19 (getting better at taking care of my baby) Δ (Day 7)” value (Day 7 vs Day 0) was 1 and the “BIMF item 20 (satisfied with the job I am doing as a new mother) Δ (Day 7)” value (Day 7 vs Day 0) was −1. For the same compound, the “BPRS Anxiety improvement” value (Day 7 vs baseline) was 6, the “BPRS Blunted affect improvement” value (Day 7 vs baseline) was 0 and the “BPRS Conceptual disorganization improvement” value (Day 7 vs baseline) was 0. The “BPRS Depressive Mood improvement” value (Day 7 vs baseline) was 5, the “BPRS Disorientation improvement” value (Day 7 vs baseline) was 0 and the “BPRS Emotional withdrawal improvement” value (Day 7 vs baseline) was 4. For the same compound, the “BPRS Excitement improvement” value (Day 7 vs baseline) was 1, the “BPRS Grandiosity improvement” value (Day 7 vs baseline) was 0 and the “BPRS Guilt feelings improvement” value (Day 7 vs baseline) was 5. For the same compound, the “BPRS Hallucinatory behaviour improvement” value (Day 7 vs baseline) was 0, the “BPRS Hostility improvement” value (Day 7 vs baseline) was 0 and the “BPRS Mannerisms and Posturing improvement” value (Day 7 vs baseline) was 0. The “BPRS Motor retardation improvement” value (Day 7 vs baseline) was 0, the “BPRS Somatic Concern improvement” value (Day 7 vs baseline) was 5 and the “BPRS Suspiciousness improvement” value (Day 7 vs baseline) was 0. The “BPRS Tension improvement” value (Day 7 vs baseline) was 5, the “BPRS Uncooperativeness improvement” value (Day 7 vs baseline) was 0 and the “BPRS Unusual Thought Content improvement” value (Day 7 vs baseline) was 0. The “MADRS Apparent sadness improvement” value (Day 7 vs baseline) was 5, the “MADRS Concentration Difficulties improvement” value (Day 7 vs baseline) was 0 and the “MADRS Inability to Feel improvement” value (Day 7 vs baseline) was 3. The “MADRS Inner Tension improvement” value (Day 7 vs baseline) was 4, the “MADRS Lassitude improvement” value (Day 7 vs baseline) was 3 and the “MADRS Pessimistic Thoughts improvement” value (Day 7 vs baseline) was 4. The “MADRS Reduced Sleep improvement” value (Day 7 vs baseline) was 5, the “MADRS Reduced appetite improvement” value (Day 7 vs baseline) was 0 and the “MADRS Reported sadness improvement” value (Day 7 vs baseline) was 4. For the same compound, the “MADRS Suicidal Thoughts improvement” value (Day 7 vs baseline) was 0, the “BPRS Anxiety improvement” value (Discharge vs baseline) was 6 and the “BPRS Blunted affect improvement” value (Discharge vs baseline) was 0. The “BPRS Conceptual disorganization improvement” value (Discharge vs baseline) was 0, the “BPRS Depressive Mood improvement” value (Discharge vs baseline) was 5 and the “BPRS Disorientation improvement” value (Discharge vs baseline) was 0. For the same compound, the “BPRS Emotional withdrawal improvement” value (Discharge vs baseline) was 4, the “BPRS Excitement improvement” value (Discharge vs baseline) was 1 and the “BPRS Grandiosity improvement” value (Discharge vs baseline) was 0. For the same compound, the “BPRS Guilt feelings improvement” value (Discharge vs baseline) was 5, the “BPRS Hallucinatory behaviour improvement” value (Discharge vs baseline) was 0 and the “BPRS Hostility improvement” value (Discharge vs baseline) was 0. For the same compound, the “BPRS Mannerisms and Posturing improvement” value (Discharge vs baseline) was 0, the “BPRS Motor retardation improvement” value (Discharge vs baseline) was 0 and the “BPRS Somatic Concern improvement” value (Discharge vs baseline) was 5. The “BPRS Suspiciousness improvement” value (Discharge vs baseline) was 0, the “BPRS Uncooperativeness improvement” value (Discharge vs baseline) was 0 and the “BPRS Unusual Thought Content improvement” value (Discharge vs baseline) was 0. For the same compound, the “BPRS Blunted affect score” value (Discharge, baseline 1) was 1, the “BPRS Conceptual disorganization score” value (Discharge, baseline 1) was 1 and the “BPRS Disorientation score” value (Discharge, baseline 1) was 1. The “BPRS Grandiosity score” value (Discharge, baseline 1) was 1, the “BPRS Hallucinatory behaviour score” value (Discharge, baseline 1) was 1 and the “BPRS Hostility score” value (Discharge, baseline 1) was 1. The “BPRS Mannerisms and Posturing score” value (Discharge, baseline 1) was 1, the “BPRS Motor retardation score” value (Discharge, baseline 1) was 1 and the “BPRS Suspiciousness score” value (Discharge, baseline 1) was 1. The “BPRS Uncooperativeness score” value (Discharge, baseline 1) was 1, the “BPRS Unusual Thought Content score” value (Discharge, baseline 1) was 1 and the “BPRS Excitement score” value (Discharge, baseline 2) was 1. For the same compound, the “BPRS Emotional withdrawal score” value (Discharge, baseline 5) was 1, the “BPRS Depressive Mood score” value (Discharge, baseline 6) was 1 and the “BPRS Guilt feelings score” value (Discharge, baseline 6) was 1. For the same compound, the “BPRS Somatic Concern score” value (Discharge, baseline 6) was 1, the “BPRS Tension score” value (Discharge, baseline 6) was 1 and the “BPRS Anxiety score” value (Discharge, baseline 7) was 1. For the same compound, the “Changes in vital parameters” value (shortly after administration) was “temporary, clinically non-relevant increase in heart rate and blood pressure”.
